Results on 16 compounds are retold here after US11498920B2, “4-(1H-imidazol-5-yl)-1H-pyrrolo[2, 3-b] pyridines for use in the treatment of leukaemias, lymphomas and solid tumors” (MASARYKOVA UNIVERZITA, priority 2018, dated 2022).

A short description of data set [1]: Pharmacokinetic study, oral dosing, plasma concentration by LC-MS/MS (Example II.5). Type of data set: in vivo. Conditions: mouse, male Balb/c mice, oral 20 mg/kg as dihydrochloride in saline, free base quantified, below LLOQ designated zero; for concentration at 15 min: read-out: conc. at 15 min; for concentration at 30 min: read-out: conc. at 30 min; for concentration at 60 min: read-out: conc. at 60 min; for concentration at 120 min: read-out: conc. at 120 min; for concentration at 240 min: read-out: conc. at 240 min; for concentration at 600 min: read-out: conc. at 600 min. As for the experimental part: Male Balb/c mice (10-12 weeks old, body weight 24.1 to 30.8 g and average body weight across all groups 26.8 g, SD=1.7 g) were used in this study. The animals were randomly assigned to the treatment groups before the pharmacokinetic study; all animals were fasted for 4 h before dosing. The time points indicated in Table 4 were set for this pharmacokinetic study. Each of the time point treatment group included 4 animals. There was also control group of 2 animals. The compounds were dosed orally as the corresponding dihydrochlorides dissolved in physiological saline (c=3-4 mg/mL) at the dose of 20 mg/kg.
Mice were injected IP with 2,2,2-tribromoethanol at the dose of 150 mg/kg prior to drawing the blood. Blood collection was performed from the orbital sinus in microtainers containing K2EDTA. Animals were sacrificed by cervical dislocation after the blood samples collection. All samples were immediately processed, flash-frozen and stored at −70° C. until subsequent analysis.
Plasma samples (50 μL) were mixed with 200 μL of internal standard solution. After mixing by pipetting and centrifuging for 4 min at 6,000 rpm, 0.5 μL of each supernatant was injected into LC-MS/MS system.
The analyzed compound (as a dihydrochloride salt) was dissolved in DMSO, and the resulting solution with concentration of 2 mg/mL was used for calibration standards preparation (stock solution). A series of calibration standards was prepared by consecutively dilution of stock compound solution with blank mouse plasma to a final concentration of 40 000, 20 000, 10 000, 5 000, 2 500, 1000, 500, 250, 100, 50, and 20 ng/mL. Standard plasma samples (50 μL) were mixed with 200 μL of internal standard. After mixing by pipetting and centrifuging for 4 min at 6,000 rpm, 0.5 μL of each supernatant was injected into LC-MS/MS system. Signal corresponding to the free base was analyzed and quantified (Table 4).
The regression analysis of the analyzed compound was performed by plotting the peak area ratio (y-axis) against the compound concentration in calibration standards (x-axis, ng/mL).
The concentrations of the analyzed compound in plasma samples below the lower limit of quantitation (LLOQ—5 ng/mL to 20 ng/mL) were designated as zero.

In a further data set the test system is primary CLL cells. Nature of the data set: Cytotoxicity, TMRE flow cytometry viability, primary CLL cells (Example II.1). Format: cell-based. Conditions: Homo sapiens, CLL cell, 6 hours, TMRE positive cells normalized to control, ratio to PF670462, <1 = higher cytotoxicity than PF670462, read-out: Viability of cells, Compound of formula I (100 μM), relative to PF670462 (100 μM), CLL primary cells. For orientation: A flow cytometer gives signals particle by particle.

Data set [2] concerns Maver-1 cells (mantle cell lymphoma). Nature of the data set: Cytotoxicity, TMRE flow cytometry viability, Maver-1 cells (Example II.1). Format: cell-based. Conditions: Homo sapiens, Maver1, 24 hours, TMRE positive cells normalized to control, ratio to PF670462, <1 = higher cytotoxicity than PF670462, read-out: Viability of cells, Compound of formula I (100 μM), relative to PF670462 (100 μM), Maver-1 cells (mantle cell lymphoma).

As a reminder, the viability is the share of living cells, or the viability signal relative to a control. With `Fc1ccc(-c2ncn(Cc3cccnc3)c2-c2ccnc3[nH]ccc23)cc1` [Preparative Example 82, 4-(4-(4-fluorophenyl)-1-(pyridin-3-ylmethyl)-1H-imidazol-5-yl)-1H-pyrrolo[2,3-b]pyridine], in data set [1], the concentration at 15 min is 1370 nM, the concentration at 30 min amounted to 260 nM, the concentration at 60 min turned out to be 90 nM and the concentration at 120 min amounted to 40 nM. For the same compound, in data set [1], the concentration at 240 min was determined as 20 nM and the concentration at 600 min was found to be 0 nM. Further, the viability at 100 µM in the data set with primary CLL cells stood at 80%.

As to `Cn1cnc(Cn2cnc(-c3ccc(F)cc3)c2-c2ccnc3[nH]ccc23)c1` [Preparative Example 92, 4-(4-(4-fluorophenyl)-1-((1-methyl-1H-imidazol-4-yl)methyl)-1H-imidazol-5-yl)-1H-pyrrolo[2,3-b]pyridine], in data set [2], the viability at 100 µM was 81%. Besides, in data set [1], the concentration at 15 min worked out at 9520 nM, the concentration at 30 min was 6630 nM, the concentration at 60 min turned out to be 4520 nM and the concentration at 120 min was found to be 790 nM. Also, in data set [1], the concentration at 240 min was found to be 50 nM and the concentration at 600 min stood at 0 nM.

As for `Cn1ccc(Cn2cnc(-c3ccc(F)cc3)c2-c2ccnc3[nH]ccc23)n1` [Preparative Example 94], the viability at 100 µM in data set [2] was determined as 81%. In data set [1], the concentration at 15 min is 440 nM, the concentration at 30 min was found to be 210 nM, the concentration at 60 min turned out to be 180 nM and the concentration at 120 min came to 70 nM. Moreover, in data set [1], the concentration at 240 min is 0 nM and the concentration at 600 min was 0 nM.

Consider `CN1CCC(Cn2cnc(-c3ccc(F)cc3)c2-c2ccnc3[nH]ccc23)CC1` [Preparative Example 102, 4-(4-(4-fluorophenyl)-1-((1-methylpiperidin-4-yl)methyl)-1H-imidazol-5-yl)-1H-pyrrolo[2,3-b]pyridine], for which the viability at 100 µM in data set [2] was determined as 69%. Also, in data set [1], the concentration at 15 min is 620 nM, the concentration at 30 min worked out at 720 nM, the concentration at 60 min came out at 400 nM and the concentration at 120 min was determined as 530 nM. Also, in data set [1], the concentration at 240 min was determined as 480 nM and the concentration at 600 min stood at 0 nM. Besides, the viability at 100 µM in the data set on primary CLL cells came out at 68%.

As to `Fc1ccc(-c2ncn(Cc3cocn3)c2-c2ccnc3[nH]ccc23)cc1` [Preparative Example 103, 4-((4-(4-fluorophenyl)-5-(1H-pyrrolo[2,3-b]pyridin-4-yl)-1H-imidazol-1-yl)methyl)oxazole], in data set [1], the concentration at 15 min is 2170 nM, the concentration at 30 min amounted to 580 nM, the concentration at 60 min came to 130 nM and the concentration at 120 min is 80 nM. In data set [1], the concentration at 240 min turned out to be 40 nM and the concentration at 600 min worked out at 0 nM.

Consider `Cc1nnc(Cn2cnc(-c3ccc(F)cc3)c2-c2ccnc3[nH]ccc23)[nH]1` [Preparative Example 107, 4-(4-(4-fluorophenyl)-1-((5-methyl-4H-1,2,4-triazol-3-yl)methyl)-1H-imidazol-5-yl)-1H-pyrrolo[2,3-b]pyridine], for which, in data set [1], the concentration at 15 min turned out to be 4780 nM, the concentration at 30 min came to 2420 nM, the concentration at 60 min is 2300 nM and the concentration at 120 min was 430 nM. In addition, in data set [1], the concentration at 240 min was 240 nM and the concentration at 600 min is 0 nM.

Regarding `Cn1cc(Cn2cnc(-c3ccc(F)cc3)c2-c2ccnc3[nH]ccc23)nn1` [Preparative Example 113, 4-(4-(4-fluorophenyl)-1-((1-methyl-1H-1,2,3-triazol-4-yl)methyl)-1H-imidazol-5-yl)-1H-pyrrolo[2,3-b]pyridine], in data set [1], the concentration at 15 min amounted to 8010 nM, the concentration at 30 min came to 3530 nM, the concentration at 60 min came out at 1030 nM and the concentration at 120 min worked out at 1120 nM. In addition, in data set [1], the concentration at 240 min amounted to 250 nM and the concentration at 600 min was found to be 0 nM.

On to `Cn1ccnc1Cn1cnc(-c2ccc(F)cc2)c1-c1ccnc2[nH]ccc12` [Preparative Example 122, 4-(4-(4-fluorophenyl)-1-((1-methyl-1H-imidazol-2-yl)methyl)-1H-imidazol-5-yl)-1H-pyrrolo[2,3-b]pyridine], for which, in data set [1], the concentration at 15 min worked out at 2730 nM, the concentration at 30 min was found to be 730 nM, the concentration at 60 min was 300 nM and the concentration at 120 min stood at 160 nM. For the same compound, in data set [1], the concentration at 240 min came out at 40 nM and the concentration at 600 min amounted to 0 nM.

`Cn1nnc(Cn2cnc(-c3ccc(F)cc3)c2-c2ccnc3[nH]ccc23)n1` [Preparative Example 151]: in data set [1], the concentration at 15 min was 18900 nM, the concentration at 30 min came to 7240 nM, the concentration at 60 min turned out to be 3980 nM and the concentration at 120 min is 770 nM. In data set [1], the concentration at 240 min came to 410 nM and the concentration at 600 min came out at 0 nM.

Regarding `Fc1ccc(-c2ncn(Cc3nc[nH]n3)c2-c2ccnc3[nH]ccc23)cc1` [Preparative Example 154, 4-(1-((1H-1,2,4-triazol-3-yl)methyl)-4-(4-fluorophenyl)-1H-imidazol-5-yl)-1H-pyrrolo[2,3-b]pyridine], in data set [1], the concentration at 15 min was 13900 nM, the concentration at 30 min was determined as 8760 nM, the concentration at 60 min is 7860 nM and the concentration at 120 min worked out at 2450 nM. In addition, in data set [1], the concentration at 240 min is 520 nM and the concentration at 600 min stood at 0 nM.

Turning to `CCOC(=O)c1nc(-c2ccc(F)cc2)c(-c2ccnc3[nH]ccc23)n1C1CCCCC1` [Preparative Example 163, ethyl 1-cyclohexyl-4-(4-fluorophenyl)-5-(1H-pyrrolo[2,3-b]pyridin-4-yl)-1H-imidazole-2-carboxylate], the values for the viability at 100 µM (in data set [2]; in the data set with primary CLL cells) were 10% and 57%, respectively.

On to `NC(=O)c1nc(-c2ccc(F)cc2)c(-c2ccnc3[nH]ccc23)n1C1CCCCC1` [Preparative Example 165, 1-cyclohexyl-4-(4-fluorophenyl)-5-(1H-pyrrolo[2,3-b]pyridin-4-yl)-1H-imidazole-2-carboxamide], for which the viability at 100 µM (in data set [2]; in the data set on primary CLL cells) was 0% throughout.

`OCc1nc(-c2ccc(F)cc2)c(-c2ccnc3[nH]ccc23)n1C1CCCCC1` [Preparative Example 166, (1-cyclohexyl-4-(4-fluorophenyl)-5-(1H-pyrrolo[2,3-b]pyridin-4-yl)-1H-imidazol-2-yl)methanol]: the viability at 100 µM in data set [2] was 4%; in the data set with primary CLL cells, 7%.

Take `CN(C)Cc1nc(-c2ccc(F)cc2)c(-c2ccnc3[nH]ccc23)n1C1CCCCC1` [Preparative Example 169, 1-(1-cyclohexyl-4-(4-fluorophenyl)-5-(1H-pyrrolo[2,3-b]pyridin-4-yl)-1H-imidazol-2-yl)-N,N-dimethylmethanamine]: the viability at 100 µM in data set [2] stood at 0%; in the data set with primary CLL cells, 12%.

As to `Nc1cc(-c2c(-c3ccc(F)cc3)ncn2C2CCCCC2)c2cc[nH]c2n1` [Preparative Example 170, 4-(1-cyclohexyl-4-(4-fluorophenyl)-1H-imidazol-5-yl)-1H-pyrrolo[2,3-b]pyridin-6-amine], the results for the viability at 100 µM (in data set [2]; in the data set with primary CLL cells) were 6% and 56%, respectively.

For the compound `Fc1ccc(-c2ncn(Cc3ccccc3)c2-c2ccnc3[nH]ccc23)cc1F` [Preparative Example 179, 4-(1-benzyl-4-(3,4-difluorophenyl)-1H-imidazol-5-yl)-1H-pyrrolo[2,3-b]pyridine], the viability at 100 µM in data set [2] came to 0%; with primary CLL cells, 1%.
